From BindingDB's records for doi:10.7270/Q2X065GM (Sanford-Burnham Center for Chemical Genomics, 2008) come the findings set out here.

The assay deals with T1, Bcl-2-related protein A1 (Mus musculus, UniProt Q07440).
T1 sequence (Q07440 whole entry): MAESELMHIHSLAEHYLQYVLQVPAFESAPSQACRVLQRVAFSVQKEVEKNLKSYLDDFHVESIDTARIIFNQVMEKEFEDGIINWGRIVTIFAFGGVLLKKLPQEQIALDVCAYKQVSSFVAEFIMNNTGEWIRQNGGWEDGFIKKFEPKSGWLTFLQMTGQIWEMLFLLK
In words: Bfl-1 binding inhibitors, SAR follow-up, biochemical, fluorescence polarization (AID 1070).

Turning to `Cc1ccc(N=C2C(=O)N(c3ccc(C)cc3)C(=O)C2Cl)cc1` (configuration not stated) [3-chloranyl-1-(4-methylphenyl)-4-[(4-methylphenyl)amino]pyrrole-2,5-dione], the 50% inhibitory concentration (IC50) turned out to be 1.7 µM.

For the molecule `COCC=Nc1c(Cl)c(O)n(-c2ccc(Cl)c(Cl)c2)c1O` [3-chloranyl-1-(3,4-dichlorophenyl)-4-(2-methoxyethylamino)pyrrole-2,5-dione], the IC50 was 12.6 µM.
